pEC50, pKi: −log10 of the molar value.
What was measured:
human recombinant ERα = target: T1, human recombinant ERα (Homo sapiens, UniProt P03372); test: Fluorescence polarization estrogen receptor (ERFP) binding assay, ERα; details: competition with Fluormone ES2; IC50 converted to Ki by Kenakin formula; read-out: FP α-ER Ki
T1 construct: purchased PanVera (Madison, Wis.)
T1 sequence (P03372 1-595): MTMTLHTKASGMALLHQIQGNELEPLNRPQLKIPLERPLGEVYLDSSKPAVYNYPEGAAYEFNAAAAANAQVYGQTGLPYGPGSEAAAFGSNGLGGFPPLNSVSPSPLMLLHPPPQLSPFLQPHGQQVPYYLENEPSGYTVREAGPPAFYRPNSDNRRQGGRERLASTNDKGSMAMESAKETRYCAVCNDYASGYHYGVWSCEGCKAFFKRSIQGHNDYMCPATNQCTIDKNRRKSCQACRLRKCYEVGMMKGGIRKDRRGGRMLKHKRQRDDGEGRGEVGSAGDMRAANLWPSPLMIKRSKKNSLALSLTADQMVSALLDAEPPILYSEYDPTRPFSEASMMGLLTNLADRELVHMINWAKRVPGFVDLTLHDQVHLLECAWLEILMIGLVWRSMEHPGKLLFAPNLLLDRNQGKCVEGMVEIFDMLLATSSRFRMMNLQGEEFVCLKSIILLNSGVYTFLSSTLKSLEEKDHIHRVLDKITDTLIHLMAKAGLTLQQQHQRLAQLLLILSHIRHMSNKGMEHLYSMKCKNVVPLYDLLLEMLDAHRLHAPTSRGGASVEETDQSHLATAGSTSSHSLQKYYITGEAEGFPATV
Experimental: (§1) A homogeneous mix-and-measure estrogen receptor (ER) binding assay which utilizes fluorescence polarization (FP) technology is used to identify compounds with affinity for the estrogen receptor. Purchased from PanVera (Madison, Wis.), assay reagents include purified human recombinant ERα, human recombinant ERβ, ES2 screening buffer (100 mM potassium phosphate, pH 7.4, 100 μg/mL bovine gamma globulin), and Fluormone™ ES2.
(§2) For competition binding experiments, dilutions of test compounds are prepared at 2× the final assay concentration in 0.2% DMSO in ES2 Screening buffer on TECAN Genosys, and 25 μL compound/well is dispensed into black Costar ½ volume 96-well plates. Dependent upon a lot specific Kd determination, 10-40 nM ERα or 10-40 nM ERβ and 1 nM Fluormone ES2 are then added to these plates in a final assay volume of 50 μL/well. Plates are gently shaken for at least 5 minutes to mix and incubated for at least 1 hr 45 minutes to achieve equilibrium. (Reaction mixtures are stable for up to 5 hours). After centrifugation to remove air bubbles, plates are read on an LJL Analyst or Acquest equipped with Criterion software at the following settings: Fluorescence Polarization Mode; Static Polarizer on Excitation Side; Dynamic Polarizer on Emission Side; Excitation λ=485×/−5 10 nm; Emission λ=520+/−12.5 nm.
(§3) Polarized fluorescence intensity values are collected and subsequently converted electronically to millipolarization (mp) values. Following data reduction and normalization with Excel and/or Prism software, % Ctrl values at the various test concentrations are used to obtain IC50 values via non-linear regression analysis of a four-parameter logistic equation.
(§4) Because ligand depletion is a consideration in this assay (˜40-60% input ES2 is bound in the assay), IC50 values are converted to Ki values through application of the Kenakin formula, as outlined in the reference below, rather than via the more routinely-used Cheng-Prusoff formula.

αER = target: T2, αER (Homo sapiens, UniProt P03372); test: Cell-based assay for ER transcriptional activity (ERE β-gal reporter), αER-transfected 293 cells; details: 293 cells transfected with αER and ERE reporter; for ERE α-ER Max: maximal response, unit assumed; for pEC50: read-out: ERE α-ER EC50
T2 construct: expressed in transfected cells; host or cells: 293 cells (Human Embryonic Kidney, ATCC CRL-1573)
T2 sequence (P03372 1-595): T1 sequence (P03372 1-595)
Experimental: (§5) ERs are ligand-dependent transcription factors that bind the promoter regions of genes at a consensus DNA sequence called the estrogen responsive element (ERE). The ER agonist or antagonist activity of a drug was determined by measuring the amount of reporter enzyme activity expressed from a plasmid under the control of an estrogen-responsive element when cells transiently transfected with ER and the reporter plasmid were exposed to drug. These experiments were conducted according to the following methods.
(§6) Estrogen Receptors alpha (αER, Gen Bank accession #M12674), and beta (βER, Gen Bank #X99101 were cloned into the expression vector pSG5 (Stratagene). A trimer of the vitellogenin-gene estrogen response element (vitERE) was synthesized as an oligonucleotide and attached to a beta-globin basal promoter in a construct named pERE3 gal. This response element and promoter were removed from pERE3 gal by digestion with the endonucleases SpeI (filled with Klenow fragment) and HindIII. This blunt/Hind III fragment was cloned into the β-galactosidase (β-gal) enhancer reporter plasmid (pBGALenh, Stratagene). αER and βER plasmids were purified using a the Endo Free Maxi Kit (Qiagen), and the DNA concentration and purity (A260/280 ratio) were determined spectrophotometrically (Pharmacia). Only DNA with A260/280 ratio of 1.8 and a concentration of >1 ug/uL was used for transfections.
(§7) All Transfections are performed in 293 cells (Human Embryonic Kidney cells ATCC #CRL-1573). Cells are grown in DMEM supplemented with 10% FBS, glutamine, sodium pyruvate and penicilin/streptomycin. Cells are grown to 70% confluency and split 1:4.
(§8) • 1. 293 cells are split the night before onto collagen I-coated 150 mm tissue-culture plates (Biocoat, Becton Dickinson #354551) at a density of 60-70% in DMEM Mediatech 17-205-CV) 10% charcoal-stripped FBS (biocell #6201-31). Approximately 1×10^7 cells/plate will yield 70% confluency. • 2. The next morning, 1 hour prior to transfection, the media is changed to fresh DMEM 10% FBS stripped and supplements. • 3. Transfections are performed using the Profection Kit (Promega #E1200). This kit is based on the calcium-phosphate-mediated transfection technique. Reagents are added in sterile polystyrene tubes in the following order:
(§9) Solution A • 15 μg αER or βER • 45 μg Reporter (pBGALenh or ERE3) • 1.5 mL Sterile Water • 186 μL CaCl2 • *Mix gently
(§10) Solution B • 1.5 mL 2× Hank's Buffered Salt Solution • 4. Using a vortex set on low, add solution A to solution B dropwise. The resulting solution should become milky in color. It is important to achieve thorough mixing. The solution is allowed to settle for 30 minutes, then vortexed before adding the solution to cells. • 5. Add the mixture to 150 mm plates dropwise. Mix well by rocking plates back and forth and side to side gently. After an hour, a very fine precipitate should be seen floating on and above cells under 20× magnification. If this precipitate is not observed, the transfection will not be effective. Incubate the cells for 12 hours. Receptor Stimulation: • 1. The day after transfection, cells are washed 2× with calcium- and magnesium-free Mg free PBS containing 1 mM EGTA (pH 7.6). Cells are trypsinized for 2 min with 3 mL of trypsin-EDTA. Trypsin is neutralized with DMEM 10% FCS. Cells are pelleted at 1000×g for 5 min. The cell pellet is then resuspended in 5 mL DMEM plus 2% phenol-red-free FCS supplemented with glutamine, pyruvate, and Penn/Strep. • 2. 50 μl of the resulting cell suspension is plated into each well of 96-well tissue culture dishes (Biocoat B&D #354407) using a multi-channel pipettor. The dishes have been previously loaded with 50 μL of DMSO-solubilized test compounds at twice the test concentration in DMEM. Data reported are either n=4 wells (single poke) and n=2 wells (9-point concentration-response curves). • 3. Cells are incubated overnight at 37° C. in the selected compounds. Reporter Assay: • 1. […]

βER = target: T3, βER (Homo sapiens, UniProt Q92731); test: Cell-based assay for ER transcriptional activity (ERE β-gal reporter), βER-transfected 293 cells; details: for pEC50 / ERE β-ER Max: 293 cells transfected with βER and ERE reporter; for ERE β-ER Max: maximal response, unit assumed; for ERE Selectivity: ratio α-ER EC50 / β-ER EC50
T3 construct: expressed in transfected cells; host or cells: 293 cells (Human Embryonic Kidney, ATCC CRL-1573)
Experimental: as §5, §6, §7, §8, §9, §10

human recombinant ERβ = target: T4, human recombinant ERβ (Homo sapiens, UniProt Q92731); test: Fluorescence polarization estrogen receptor (ERFP) binding assay, ERβ; details: for pKi: competition with Fluormone ES2, IC50 converted to Ki by Kenakin formula, read-out: FP β-ER Ki; for FP Selectivity: ratio α-ER Ki / β-ER Ki
T4 construct: purchased PanVera (Madison, Wis.)
Experimental: as §1, §2, §3, §4

T3 sequence (Q92731 54-530 limits assumed): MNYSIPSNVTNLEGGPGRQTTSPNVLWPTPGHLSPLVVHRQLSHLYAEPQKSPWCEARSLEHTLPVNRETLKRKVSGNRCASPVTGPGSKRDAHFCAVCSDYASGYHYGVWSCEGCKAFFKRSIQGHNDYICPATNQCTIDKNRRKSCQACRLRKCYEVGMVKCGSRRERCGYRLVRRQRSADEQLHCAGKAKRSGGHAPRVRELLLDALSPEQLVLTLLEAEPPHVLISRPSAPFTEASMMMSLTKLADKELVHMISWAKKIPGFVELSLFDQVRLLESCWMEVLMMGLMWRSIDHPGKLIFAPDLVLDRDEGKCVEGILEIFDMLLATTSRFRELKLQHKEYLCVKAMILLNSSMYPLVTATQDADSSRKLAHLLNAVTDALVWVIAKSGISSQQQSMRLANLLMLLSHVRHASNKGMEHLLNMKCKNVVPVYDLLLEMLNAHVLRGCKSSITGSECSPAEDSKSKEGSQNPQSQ
T4 sequence (Q92731 whole entry): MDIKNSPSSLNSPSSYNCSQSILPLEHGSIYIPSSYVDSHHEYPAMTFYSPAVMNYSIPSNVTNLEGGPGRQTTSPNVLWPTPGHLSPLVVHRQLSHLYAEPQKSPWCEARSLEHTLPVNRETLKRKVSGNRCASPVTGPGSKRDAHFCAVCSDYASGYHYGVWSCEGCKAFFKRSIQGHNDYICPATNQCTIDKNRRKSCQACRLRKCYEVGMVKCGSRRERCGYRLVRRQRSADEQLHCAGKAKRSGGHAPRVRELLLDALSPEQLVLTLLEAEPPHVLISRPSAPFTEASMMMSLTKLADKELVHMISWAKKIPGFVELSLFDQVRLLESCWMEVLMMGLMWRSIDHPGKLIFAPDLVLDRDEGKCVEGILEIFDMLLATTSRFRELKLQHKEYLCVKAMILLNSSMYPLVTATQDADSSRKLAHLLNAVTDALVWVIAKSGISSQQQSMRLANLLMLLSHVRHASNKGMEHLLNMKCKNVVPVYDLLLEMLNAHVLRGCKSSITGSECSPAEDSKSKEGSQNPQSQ

Compound	pKi (human recombinant ERα)	ERE α-ER Max (αER)	pEC50 (αER)	pEC50 (βER)	ERE β-ER Max (βER)	ERE Selectivity (βER)	pKi (human recombinant ERβ)	FP Selectivity (human recombinant ERβ)
CC1c2ccc(O)cc2CCN1c1ccc(O)cc1 (stereo not shown) [Example 14, 2-(4-Hydroxy-phenyl)-1-methyl-1,2,3,4-tetrahydro-isoquinolin-6-ol]	6.51	42%	6.00	6.84	44%	7.0	7.35	6.8
Cc1cc(O)ccc1N1CCc2cc(O)ccc2C1 [Example 3, 2-(4-Hydroxy-2-methylphenyl)-1,2,3,4-tetrahydroisoquinolin-6-ol]	7.22	93%	7.55	7.45	103%	0.8	8.10	7.4
Cc1ccc(N2CCc3cc(O)ccc3C2c2ccoc2)cc1O (stereo not shown) [Example 21, 1-Furan-3-yl-2-(3-hydroxy-4-methyl-phenyl)-1,2,3,4-tetrahydro-isoquinolin-6-ol]	7.66	77%	9.10	9.15	106%	1.1	8.42	6.0
CCC1c2cc(O)ccc2CN1c1ccc(O)cc1 (stereo not shown) [Example 26, 1-Ethyl-6-hydroxy-2-(4-hydroxyphenyl)isoindoline]	6.70	102%	7.14	7.10	85%	0.9	6.80	1.3
Cc1ccc(O)cc1N1CCc2cc(O)ccc2C1C (stereo not shown) [Example 18, 2-(5-Hydroxy-2-methyl-phenyl)-1-methyl-1,2,3,4-tetrahydro-isoquinolin-6-ol]	8.05	85%	7.61	8.21	117%	4.0	8.35	2.1
CC1c2ccc(O)cc2CCN1c1cccc(O)c1 (stereo not shown) [Example 17, 2-(3-Hydroxy-phenyl)-1-methyl-1,2,3,4-tetrahydro-isoquinolin-6-ol]	6.96	87%	8.60	7.31	72%	0.1	7.47	3.3
Cc1ccc(N2CCc3cc(O)ccc3C2c2ccccc2)cc1O (stereo not shown) [Example 20, 2-(3-Hydroxy-4-methyl-phenyl)-1-phenyl-1,2,3,4-tetrahydro-isoquinolin-6-ol]	8.52	75%	8.92	9.40	85%	3.3	8.92	2.5
Oc1ccc(N2CCc3cc(O)ccc3C2c2ccc(Cl)cc2Cl)cc1 (stereo not shown) [Example 10, 1-(2,4-Dichlorophenyl)-2-(4-hydroxyphenyl)-1,2,3,4-tetrahydroisoquinolin-6-ol]	7.96	95%	–	–	44%	–	8.15	1.6
Oc1ccc(N2CCc3cc(O)ccc3C2c2ccccc2)cc1 (stereo not shown) [Example 6, 2-(4Hydroxyphenyl)-1-phenyl-1,2,3,4-tetrahydroisoquinolin-6-ol]	8.00	100%	9.22	8.12	105%	0.1	8.00	0.9
6-Hydroxy-2-(4-hydroxyphenyl)-1-phenylisoindoline and 5-hydroxy-2-(4-hydroxyphenyl)-1-phenylisoindoline [Example 27]	6.77	54%	8.17	7.47	90%	0.2	6.72	0.9
Oc1ccc(N2Cc3ccc(O)cc3C2)cc1 [Example 25, 5-Hydroxy-2-(4-hydroxyphenyl)isoindoline]	6.72	60%	6.72	6.79	77%	1.2	7.26	3.5
